# In patent publication US20250147039A1, “Compounds for complexation of rare earth elements and/or s-, p-, d- block metals, their coordination compounds, peptide conjugates, method of their preparation and use thereof” (USTAV ORGANICKE CHEMIE A BIOCHEMIE AV CR V.V.I., priority 2021, published 2025):
# What was measured:
# [1] = Formation of 1,5-cz-[M(Lig)] from Lig and M^III ions (metal dependent click-zip) (Charts 4, 5); assay type: physicochemical; conditions: MOPS/NaOH buffer pH 7.0; for conversion to 1,5-cz-[M(Lig)], Sc^III / conversion to 1,5-cz-[M(Lig)], Y^III: TD728, TD827 in 50% i-PrOH; for conversion to 1,5-cz-[M(Lig)], Y^III: TD714 sum of two diastereoisomers
# [2] = Formation of 1,5-cz-[Ln(Lig)] from Lig and Ln^III ions (metal dependent click-zip), MOPS/NaOH buffer pH 7.0, analytical HPLC (Charts 1, 2)
# [3] = after 1 week at 80° C., 50% i-PrOH in aq. MOPS/NaOH Buffer pH 7.0
# [4] = after 1 hour at 80° C., 50% i-PrOH in aq. MOPS/NaOH Buffer pH 7.0
# [5] = after 1 week at 80° C., MOPS/NaOH buffer pH 7.0
# [6] = after 1 hour at 80° C., MOPS/NaOH buffer pH 7.0
smiles,measurement,setting,value
C#Cc1cccc(CN2CCN(CC(=O)O)CCN(Cc3cc(C#C[Si](C(C)C)(C(C)C)C(C)C)cc(CN=[N+]=[N-])n3)CCN(CC(=O)O)CC2)n1 [TD827],"conversion to 1,5-cz-[M(Lig)], Sc^III",[1]; 1 week at 80° C.,55%
same,"conversion to 1,5-cz-[M(Lig)], Y^III",[1]; 1 week at 80° C.,96%
same,"conversion to 1,5-cz-[M(Lig)], Sc^III",[1]; 1 hour at 80° C.,2%
same,"conversion to 1,5-cz-[M(Lig)], Y^III",[1]; 1 hour at 80° C.,42%
same,"conversion to 1,5-cz-[Ln(Lig)], Ce^III",[2]; [3],22%
same,"conversion to 1,5-cz-[Ln(Lig)], Ce^III",[2]; [4],2%
same,"conversion to 1,5-cz-[Ln(Lig)], Dy^III",[2]; [3],96%
same,"conversion to 1,5-cz-[Ln(Lig)], Dy^III",[2]; [4],30%
same,"conversion to 1,5-cz-[Ln(Lig)], Er^III",[2]; [3],96%
same,"conversion to 1,5-cz-[Ln(Lig)], Er^III",[2]; [4],56%
same,"conversion to 1,5-cz-[Ln(Lig)], Eu^III",[2]; [3],92%
same,"conversion to 1,5-cz-[Ln(Lig)], Eu^III",[2]; [4],9%
same,"conversion to 1,5-cz-[Ln(Lig)], Gd^III",[2]; [3],93%
same,"conversion to 1,5-cz-[Ln(Lig)], Gd^III",[2]; [4],11%
same,"conversion to 1,5-cz-[Ln(Lig)], Ho^III",[2]; [3],96%
same,"conversion to 1,5-cz-[Ln(Lig)], Ho^III",[2]; [4],43%
same,"conversion to 1,5-cz-[Ln(Lig)], La^III",[2]; [3],46%
same,"conversion to 1,5-cz-[Ln(Lig)], La^III",[2]; [4],1%
same,"conversion to 1,5-cz-[Ln(Lig)], Lu^III",[2]; [3],97%
same,"conversion to 1,5-cz-[Ln(Lig)], Lu^III",[2]; [4],77%
same,"conversion to 1,5-cz-[Ln(Lig)], Nd^III",[2]; [3],84%
same,"conversion to 1,5-cz-[Ln(Lig)], Nd^III",[2]; [4],3%
same,"conversion to 1,5-cz-[Ln(Lig)], Pr^III",[2]; [3],79%
same,"conversion to 1,5-cz-[Ln(Lig)], Pr^III",[2]; [4],2%
same,"conversion to 1,5-cz-[Ln(Lig)], Sm^III",[2]; [3],91%
same,"conversion to 1,5-cz-[Ln(Lig)], Sm^III",[2]; [4],7%
same,"conversion to 1,5-cz-[Ln(Lig)], Tb^III",[2]; [3],95%
same,"conversion to 1,5-cz-[Ln(Lig)], Tb^III",[2]; [4],21%
same,"conversion to 1,5-cz-[Ln(Lig)], Tm^III",[2]; [3],97%
same,"conversion to 1,5-cz-[Ln(Lig)], Tm^III",[2]; [4],68%
same,"conversion to 1,5-cz-[Ln(Lig)], Yb^III",[2]; [3],97%
same,"conversion to 1,5-cz-[Ln(Lig)], Yb^III",[2]; [4],75%
C#Cc1cccc(CN2CCN(CCC(=O)O)CCN(Cc3cccc(CN=[N+]=[N-])n3)CCN(CCC(=O)O)CC2)n1 [TD801],"conversion to 1,5-cz-[M(Lig)], Sc^III",[1]; 1 week at 80° C.,0%
same,"conversion to 1,5-cz-[M(Lig)], Y^III",[1]; 1 week at 80° C.,0%
same,"conversion to 1,5-cz-[M(Lig)], Sc^III",[1]; 1 hour at 80° C.,0%
same,"conversion to 1,5-cz-[M(Lig)], Y^III",[1]; 1 hour at 80° C.,0%
same,"conversion to 1,5-cz-[Ln(Lig)], Ce^III",[2]; [5],0%
same,"conversion to 1,5-cz-[Ln(Lig)], Ce^III",[2]; [6],0%
same,"conversion to 1,5-cz-[Ln(Lig)], Dy^III",[2]; [5],0%
same,"conversion to 1,5-cz-[Ln(Lig)], Dy^III",[2]; [6],0%
same,"conversion to 1,5-cz-[Ln(Lig)], Er^III",[2]; [5],0%
same,"conversion to 1,5-cz-[Ln(Lig)], Er^III",[2]; [6],0%
same,"conversion to 1,5-cz-[Ln(Lig)], Eu^III",[2]; [5],0%
same,"conversion to 1,5-cz-[Ln(Lig)], Eu^III",[2]; [6],0%
same,"conversion to 1,5-cz-[Ln(Lig)], Gd^III",[2]; [5],0%
same,"conversion to 1,5-cz-[Ln(Lig)], Gd^III",[2]; [6],0%
same,"conversion to 1,5-cz-[Ln(Lig)], Ho^III",[2]; [5],0%
same,"conversion to 1,5-cz-[Ln(Lig)], Ho^III",[2]; [6],0%
same,"conversion to 1,5-cz-[Ln(Lig)], La^III",[2]; [5],0%
same,"conversion to 1,5-cz-[Ln(Lig)], La^III",[2]; [6],0%
same,"conversion to 1,5-cz-[Ln(Lig)], Lu^III",[2]; [5],0%
same,"conversion to 1,5-cz-[Ln(Lig)], Lu^III",[2]; [6],0%
same,"conversion to 1,5-cz-[Ln(Lig)], Nd^III",[2]; [5],0%
same,"conversion to 1,5-cz-[Ln(Lig)], Nd^III",[2]; [6],0%
same,"conversion to 1,5-cz-[Ln(Lig)], Pr^III",[2]; [5],0%
same,"conversion to 1,5-cz-[Ln(Lig)], Pr^III",[2]; [6],0%
same,"conversion to 1,5-cz-[Ln(Lig)], Sm^III",[2]; [5],0%
same,"conversion to 1,5-cz-[Ln(Lig)], Sm^III",[2]; [6],0%
same,"conversion to 1,5-cz-[Ln(Lig)], Tb^III",[2]; [5],0%
same,"conversion to 1,5-cz-[Ln(Lig)], Tb^III",[2]; [6],0%
same,"conversion to 1,5-cz-[Ln(Lig)], Tm^III",[2]; [5],0%
same,"conversion to 1,5-cz-[Ln(Lig)], Tm^III",[2]; [6],0%
same,"conversion to 1,5-cz-[Ln(Lig)], Yb^III",[2]; [5],0%
same,"conversion to 1,5-cz-[Ln(Lig)], Yb^III",[2]; [6],0%
C#Cc1cccc(CN2CCN(CC(=O)O)CCN(Cc3cc(C(=O)OC(C)(C)C)cc(CN=[N+]=[N-])n3)CCN(CC(=O)O)CC2)n1 [TD1160],"conversion to 1,5-cz-[Ln(Lig)] with hydrolysed group in the side chain, Y^III",[1]; 1 week at 80° C.,90%
same,"conversion to 1,5-cz-[M(Lig)], Y^III",[1]; 1 week at 80° C.,0%
same,"conversion to 1,5-cz-[Ln(Lig)] with hydrolysed group in the side chain, Y^III",[1]; 1 hour at 80° C.,17%
same,"conversion to 1,5-cz-[M(Lig)], Y^III",[1]; 1 hour at 80° C.,1%
same,"conversion to 1,5-cz-[Ln(Lig)] with hydrolysed group in the side chain, Lu^III",[2]; [5],91%
same,"conversion to 1,5-cz-[Ln(Lig)], Lu^III",[2]; [5],0%
same,"conversion to 1,5-cz-[Ln(Lig)] with hydrolysed group in the side chain, Lu^III",[2]; [6],61%
same,"conversion to 1,5-cz-[Ln(Lig)], Lu^III",[2]; [6],3%
same,"conversion to 1,5-cz-[Ln(Lig)] with hydrolysed group in the side chain, Sm^III",[2]; [5],85%
same,"conversion to 1,5-cz-[Ln(Lig)], Sm^III",[2]; [5],0%
same,"conversion to 1,5-cz-[Ln(Lig)] with hydrolysed group in the side chain, Sm^III",[2]; [6],3%
same,"conversion to 1,5-cz-[Ln(Lig)], Sm^III",[2]; [6],0%
same,"conversion to 1,5-cz-[Ln(Lig)] with hydrolysed group in the side chain, Tb^III",[2]; [5],89%
same,"conversion to 1,5-cz-[Ln(Lig)], Tb^III",[2]; [5],0%
same,"conversion to 1,5-cz-[Ln(Lig)] with hydrolysed group in the side chain, Tb^III",[2]; [6],9%
same,"conversion to 1,5-cz-[Ln(Lig)], Tb^III",[2]; [6],0%
C#Cc1cccc(CN2CCN(CC(=O)O)CCN(Cc3cc(-c4ccc(C(=O)O)cc4)cc(CN=[N+]=[N-])n3)CCN(CC(=O)O)CC2)n1 [TD742],"conversion to 1,5-cz-[M(Lig)], Sc^III",[1]; 1 week at 80° C.,52%
same,"conversion to 1,5-cz-[M(Lig)], Y^III",[1]; 1 week at 80° C.,94%
same,"conversion to 1,5-cz-[M(Lig)], Sc^III",[1]; 1 hour at 80° C.,7%
same,"conversion to 1,5-cz-[M(Lig)], Y^III",[1]; 1 hour at 80° C.,22%
same,"conversion to 1,5-cz-[Ln(Lig)], Ce^III",[2]; [5],43%
same,"conversion to 1,5-cz-[Ln(Lig)], Ce^III",[2]; [6],1%
same,"conversion to 1,5-cz-[Ln(Lig)], Dy^III",[2]; [5],93%
same,"conversion to 1,5-cz-[Ln(Lig)], Dy^III",[2]; [6],15%
same,"conversion to 1,5-cz-[Ln(Lig)], Er^III",[2]; [5],94%
same,"conversion to 1,5-cz-[Ln(Lig)], Er^III",[2]; [6],34%
same,"conversion to 1,5-cz-[Ln(Lig)], Eu^III",[2]; [5],89%
same,"conversion to 1,5-cz-[Ln(Lig)], Eu^III",[2]; [6],4%
same,"conversion to 1,5-cz-[Ln(Lig)], Gd^III",[2]; [5],91%
same,"conversion to 1,5-cz-[Ln(Lig)], Gd^III",[2]; [6],5%
same,"conversion to 1,5-cz-[Ln(Lig)], Ho^III",[2]; [5],94%
same,"conversion to 1,5-cz-[Ln(Lig)], Ho^III",[2]; [6],22%
same,"conversion to 1,5-cz-[Ln(Lig)], La^III",[2]; [5],40%
same,"conversion to 1,5-cz-[Ln(Lig)], La^III",[2]; [6],1%
same,"conversion to 1,5-cz-[Ln(Lig)], Lu^III",[2]; [5],94%
same,"conversion to 1,5-cz-[Ln(Lig)], Lu^III",[2]; [6],66%
same,"conversion to 1,5-cz-[Ln(Lig)], Nd^III",[2]; [5],76%
same,"conversion to 1,5-cz-[Ln(Lig)], Nd^III",[2]; [6],1%
same,"conversion to 1,5-cz-[Ln(Lig)], Pr^III",[2]; [5],66%
same,"conversion to 1,5-cz-[Ln(Lig)], Pr^III",[2]; [6],1%
same,"conversion to 1,5-cz-[Ln(Lig)], Sm^III",[2]; [5],87%
same,"conversion to 1,5-cz-[Ln(Lig)], Sm^III",[2]; [6],3%
same,"conversion to 1,5-cz-[Ln(Lig)], Tb^III",[2]; [5],93%
same,"conversion to 1,5-cz-[Ln(Lig)], Tb^III",[2]; [6],9%
same,"conversion to 1,5-cz-[Ln(Lig)], Tm^III",[2]; [5],94%
same,"conversion to 1,5-cz-[Ln(Lig)], Tm^III",[2]; [6],48%
same,"conversion to 1,5-cz-[Ln(Lig)], Yb^III",[2]; [5],93%
same,"conversion to 1,5-cz-[Ln(Lig)], Yb^III",[2]; [6],55%
